Test results reported in BindingDB's records for doi:10.1021/jm00076a005 (Glaxo Group Research, 1993).

Target: T1, Gag-Pol polyprotein [588-1027]/[588-1147] (Human immunodeficiency virus 1, UniProt P04585)
T1 construct: 588-1027; 588-1147
Assay: HIV-1 RT Assay
Description: The IC50 of reverse transcriptase is the concentration that inhibits 50% of recombinant HIV-1 RT RNA-directed DNA polymerase activity in vitro.

Compound | IC50 (pH 8, 37 °C) [nM] | IC50 [nM]
Cc1nc(CCCCCO)n2nc(Cl)ccc12 [5-{2-chloro-5-methylimidazo[1,5-a]pyridazin-7-yl}pentan-1-ol] | 100000 | –
Cc1nc(CCCCCCC(=O)c2ccccc2)n2nc(-n3cncn3)ccc12 [7-[5-methyl-2-(1H-1,2,4-triazol-1-yl)imidazo[1,5-a]pyridazin-7-yl]-1-phenylheptan-1-one] | – | 100
Cc1nc(CCCCCCC(=O)c2ccccc2)n2nc(-n3cncc3C)ccc12 [7-[5-methyl-2-(5-methyl-1H-imidazol-1-yl)imidazo[1,5-a]pyridazin-7-yl]-1-phenylheptan-1-one] | – | 100
